The target in series [1] is T1, human AR (Homo sapiens, UniProt P10275).
T1 construct: expressed in transfected cells; host or cells: COS-1
T1 sequence (P10275 1-920): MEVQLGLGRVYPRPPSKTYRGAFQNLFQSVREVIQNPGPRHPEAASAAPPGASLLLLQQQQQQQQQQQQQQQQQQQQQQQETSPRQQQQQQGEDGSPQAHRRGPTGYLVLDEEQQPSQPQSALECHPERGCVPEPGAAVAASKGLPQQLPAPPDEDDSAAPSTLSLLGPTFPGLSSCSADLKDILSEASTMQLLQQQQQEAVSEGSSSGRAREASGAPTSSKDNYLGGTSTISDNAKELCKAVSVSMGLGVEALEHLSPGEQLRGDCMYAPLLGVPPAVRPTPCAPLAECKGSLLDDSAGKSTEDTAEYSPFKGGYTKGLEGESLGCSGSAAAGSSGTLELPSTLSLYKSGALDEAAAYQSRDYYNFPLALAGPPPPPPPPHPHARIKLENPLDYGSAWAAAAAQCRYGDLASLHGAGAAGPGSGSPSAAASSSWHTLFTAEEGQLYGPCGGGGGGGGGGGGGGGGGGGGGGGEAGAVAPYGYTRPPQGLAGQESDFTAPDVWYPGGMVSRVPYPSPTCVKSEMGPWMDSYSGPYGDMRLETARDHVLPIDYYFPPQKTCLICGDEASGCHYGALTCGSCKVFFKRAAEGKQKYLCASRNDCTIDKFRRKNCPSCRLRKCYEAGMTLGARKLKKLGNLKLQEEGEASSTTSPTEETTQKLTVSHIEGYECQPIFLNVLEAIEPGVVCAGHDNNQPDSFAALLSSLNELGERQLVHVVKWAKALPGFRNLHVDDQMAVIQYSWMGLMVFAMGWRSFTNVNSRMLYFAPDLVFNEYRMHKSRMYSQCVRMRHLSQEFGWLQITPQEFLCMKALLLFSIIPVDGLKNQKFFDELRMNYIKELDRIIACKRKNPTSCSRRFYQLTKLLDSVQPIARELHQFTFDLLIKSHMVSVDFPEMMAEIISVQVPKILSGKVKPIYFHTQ
Put plainly: Competitive AR binding assay against [3H]-R1881 in transiently transfected COS-1 cells. The settings on record: compound 13.4 μM, [3H]-R1881 1.34 nM, complete inhibition equals 100%; for inhibition at 13.4 µM: read-out: Inhibition of [3H]-R1881 binding at 1.34 nM ± S.D. The method in brief: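 COS-1 cells transfected 24 h with human AR vector, then after 36 h exposed 2 h at 37° C to compound at 10000-fold molar excess over 1.34 nM [3H]-R1881. Cell-bound radioactivity counted in triplicate; result given as % inhibition of labelled R1881 binding.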

The target of series [2] is T1, human AR. Put plainly: AR antagonism assay: inhibition of transcriptional activation of AR (Probasin-luc reporter, COS-1 cells). As to conditions: compound 10.0 μM, relative luciferase response: 100% for testosterone (no antiandrogenic effect), 0% for complete antagonism. The class given is cell-based. In short, it runs like this: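 COS-1 cells transfected 24 h with human AR vector, Probasin-luc reporter and β-gal control, then exposed 18 h at 37 °C to 10 μM compound plus 100 nM testosterone. Luciferase read-out normalised to β-galactosidase activity and protein content.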

Structures are written as SMILES. Read-outs that look alike come from different tables or passages of the source.

For orientation: inhibition means the percentage by which the read-out fell short of the control. As a reminder, the melting point is the temperature of the solid-liquid transition. `COc1ccc(C2=NOC(C)(Cc3ccccc3)C2)cc1` (centres unmarked) [Example 3ab, 5-Benzyl-3-(4-methoxyphenyl)-5-methyl-4,5-dihydro-isoxazole] displayed a melting point of 97.8 to 98.6 °C. Besides, the inhibition at 13.4 µM in series [1] (Table 1) amounted to 49.6 ± 2%.

In the case of `CC1(Cc2ccccc2)CC(c2ccc3ccccc3c2)=NO1` (centres unmarked) [Example 9ab, 5-Benzyl-3-naphthalen-2-yl-5-methyl-4,5-dihydro-isoxazole], the melting point was 144.8 to 146.3 °C. Moreover, the inhibition at 13.4 µM in series [1] (Table 1) stood at 63.7 ± 1.5%.

Compound `COc1ccccc1C1=NOC(Cc2ccccc2)(c2ccccc2)C1` (centres unmarked) [Example 12, 5-Benzyl-3-(2-methoxyphenyl)-5-phenyl-4,5-dihydro-isoxazole] gave a melting point of 109.3 to 110.2 °C.

For the compound `COc1cccc(C2=NOC(Cc3ccccc3)(c3ccccc3)C2)c1` (centres unmarked) [Example 13, 5-Benzyl-5-phenyl-3-(3-methoxyphenyl)-4,5-dihydro-isoxazole], the melting point lay in the range of 94.4 to 95.2 °C.

`COc1ccc(C2=NOC(Cc3ccccc3)(c3ccccc3)C2)cc1` (centres unmarked) [Example 14, 5-Benzyl-3-(4-methoxyphenyl)-5-phenyl-4,5-dihydro-isoxazole] came in with a melting point of 139.3 to 141 °C.

On to `Fc1ccccc1C1=NOC(Cc2ccccc2)(c2ccccc2)C1` (centres unmarked) [Example 15ab, 5-Benzyl-3-(2-fluorophenyl)-5-phenyl-4,5-dihydro-isoxazole], for which the melting point lay in the range of 134.3 to 135.2 °C. Further, the inhibition at 13.4 µM in series [1] (Table 1) is 49.5 ± 4.3%.

As to `Clc1ccc(C2=NOC(Cc3ccccc3)(c3ccccc3)C2)cc1` (centres unmarked) [Example 16, 5-Benzyl-3-(4-chlorophenyl)-5-phenyl-4,5-dihydro-isoxazole], the melting point fell in the range of 120.3 to 122.1 °C.

The compound `O=[N+]([O-])c1ccc(C2=NOC(Cc3ccccc3)(c3ccccc3)C2)cc1` (centres unmarked) [Example 17, 5-Benzyl-3-(4-nitrophenyl)-5-phenyl-4,5-dihydro-isoxazole] came in with a melting point of 158 to 159.2 °C.

`N#Cc1ccc(C2=NOC(Cc3ccccc3)(c3ccccc3)C2)cc1` (centres unmarked) [Example 18, 4-(5-Benzyl-5-phenyl-4,5-dihydro-isoxazol-3-yl)-benzonitrile] showed a melting point of 104.5 to 107 °C.

In the case of `Oc1ccc(C2=NOC(Cc3ccccc3)(c3ccccc3)C2)cc1` (centres unmarked) [Example 80, 5-Benzyl-3-(4-hydroxyphenyl)-5-phenyl-4,5-dihydro-isoxazole], the melting point lay within 151.3 to 153.9 °C.

On to `N#Cc1cccc(C2=NOC3CCCCCC23)c1C(F)(F)F` (centres unmarked) [Example 95a, 3-(4,5,6,7,8,8a-Hexahydro-3aH-cyclohepta[d]isoxazol-3-yl)-2-trifluoromethyl-benzonitrile], for which the inhibition at 13.4 µM in series [1] (Table 3) was found to be 96.2 ± 0.8%. For the same compound, the remaining activity at 10 µM in series [2] (COS-1, 18 h, read-out: AR antagonism against 100 nM testosterone ± S.D.) amounted to 14.4 ± 1.9%.

With `N#Cc1cccc(C2=NOC3CCCCCC23)c1C(F)(F)F` (centres unmarked) [Example 95b, 3-(4,5,6,7,8,8a-Hexahydro-3aH-cyclohepta[d]isoxazol-3-yl)-2-trifluoromethyl-benzonitrile], the “Inhibition of [3H]-R1881 binding at 1.34 nM ± S.D.” value in series [1] (Table 3) was found to be 98.1 ± 0.3%. Also, the “AR antagonism against 100 nM testosterone ± S.D.” value in series [2] is 19.2 ± 2.9%.

The values above are taken from patent publication US9278942B2, “Non-steroidal compounds as androgen receptor modulators” (FLX Discoveries Oy, priority 2011, dated 2016).
